Assay results published in patent publication US4894385A, “Imidazole derivatives as inhibitors of TXA2 synthesis” (Sankyo Company Limited, priority 1985, dated 1990).
Counter-ions that a name gives are not always drawn.

Experiments:
[1] = target: T1, TXA2 synthetase (Oryctolagus cuniculus, UniProt G1TAZ9); assay: Inhibition of Thromboxane A2 Synthetase (rabbit platelet microsomes); type: biochemical; conditions: 0.1 mM [14C] arachidonic acid, 1 minute, 22° C., compounds as hydrochloride except No. 40 (free base)
T1 construct: The platelet microsome fraction was separated from rabbit and from human blood; from tissue; host or cells: rabbit blood platelets, microsome fraction
T1 sequence (G1TAZ9 1-530): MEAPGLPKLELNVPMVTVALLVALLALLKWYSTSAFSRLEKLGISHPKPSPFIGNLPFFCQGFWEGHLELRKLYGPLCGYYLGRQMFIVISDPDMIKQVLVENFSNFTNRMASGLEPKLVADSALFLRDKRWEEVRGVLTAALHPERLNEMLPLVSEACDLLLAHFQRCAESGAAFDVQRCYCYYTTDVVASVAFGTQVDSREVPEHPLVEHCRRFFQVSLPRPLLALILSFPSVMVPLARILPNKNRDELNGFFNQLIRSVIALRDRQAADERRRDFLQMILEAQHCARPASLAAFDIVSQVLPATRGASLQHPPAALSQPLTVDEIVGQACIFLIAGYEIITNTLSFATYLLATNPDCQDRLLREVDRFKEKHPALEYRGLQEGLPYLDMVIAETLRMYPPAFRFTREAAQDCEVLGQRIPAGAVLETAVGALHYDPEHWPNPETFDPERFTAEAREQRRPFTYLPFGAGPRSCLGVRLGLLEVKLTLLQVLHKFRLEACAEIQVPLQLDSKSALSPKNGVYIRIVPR
Description: The platelet microsome fraction was separated from rabbit and from human blood by the method of Needleman et al. [Needleman et al., Science, 193, 163 (1976)]. The microsomal TXA2 synthetase activity in the presence of various of the compounds of the invention at various concentrations was assayed by a modification of the method of […] et al. [[…] et al., Prostaglandins, 21, 543 (1981)] by incubating the microsome fractions with labelled 1-[^14 C] arachidonic acid at a concentration of 0.1 mM for 1 minute at 22° C., to a final volume of 0.2 ml. The reaction was terminated by the addition of […] of 0.2M citric acid, and then the mixture was extracted with 1.5 ml of ethyl acetate. […] The developing solvent for the chromatography was a 90:8:1:0.8 by volume mixture of chloroform, methanol, acetic acid and water. […] The results are shown in the following Table as the IC50, i.e. the concentration required to inhibit the activity of thromboxane synthetase by 50%. […] The compounds of the invention are identified in the following Tables by the numbers heretofore assigned to them. All compounds were employed in the form of the hydrochloride, except Compound No. 40, which was employed as the free base. The results using rabbit platelet microsomes are given in Table 4, whilst the results using human platelet microsomes are given in Table 5.

[2] = target: T2, TXA2 synthetase (Homo sapiens, UniProt P24557); assay: Inhibition of Thromboxane A2 Synthetase (human platelet microsomes); type: biochemical; conditions: 0.1 mM [14C] arachidonic acid, 1 minute, 22° C., compounds as hydrochloride
T2 construct: The platelet microsome fraction was separated from rabbit and from human blood; from tissue; host or cells: human blood platelets, microsome fraction
T2 sequence (P24557 1-533): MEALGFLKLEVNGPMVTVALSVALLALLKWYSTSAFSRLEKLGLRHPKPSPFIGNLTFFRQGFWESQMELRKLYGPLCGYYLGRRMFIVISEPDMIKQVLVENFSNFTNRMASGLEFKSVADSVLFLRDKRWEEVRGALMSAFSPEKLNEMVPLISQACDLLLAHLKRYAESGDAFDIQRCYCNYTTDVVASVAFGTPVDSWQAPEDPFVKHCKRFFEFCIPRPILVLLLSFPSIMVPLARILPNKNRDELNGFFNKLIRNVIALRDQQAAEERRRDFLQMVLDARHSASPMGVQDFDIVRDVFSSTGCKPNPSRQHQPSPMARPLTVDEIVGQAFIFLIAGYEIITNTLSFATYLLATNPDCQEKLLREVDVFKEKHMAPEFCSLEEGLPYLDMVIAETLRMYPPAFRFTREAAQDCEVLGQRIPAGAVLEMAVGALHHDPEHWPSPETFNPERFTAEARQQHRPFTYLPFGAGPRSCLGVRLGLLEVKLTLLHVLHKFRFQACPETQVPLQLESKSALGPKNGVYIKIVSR
Description: The platelet microsome fraction was separated from rabbit and from human blood by the method of Needleman et al. [Needleman et al., Science, 193, 163 (1976)]. The microsomal TXA2 synthetase activity in the presence of various of the compounds of the invention at various concentrations was assayed by a modification of the method of […] et al. [[…] et al., Prostaglandins, 21, 543 (1981)] by incubating the microsome fractions with labelled 1-[^14 C] arachidonic acid at a concentration of 0.1 mM for 1 minute at 22° C., to a final volume of 0.2 ml. The reaction was terminated by the addition of […] of 0.2M citric acid, and then the mixture was extracted with 1.5 ml of ethyl acetate. […] The developing solvent for the chromatography was a 90:8:1:0.8 by volume mixture of chloroform, methanol, acetic acid and water.

[3] = system: pulmonary thromboembolisms caused by the intravenous injection of arachidonic acid; assay: Antithrombotic Activity in Rabbits (arachidonic acid i.v. sudden death); type: in vivo, male Japanese white rabbits; conditions: Oryctolagus cuniculus; oral, 1 hour before 1.3 mg/kg i.v. arachidonic acid; sudden deaths; Probit's method
Description: This test was carried out by a modification of the method of Silver et al. [Science, 183, 1085 (1974)]. The test animals used were male Japanese white rabbits of approximately 3 kg bodyweight.
Each group of rabbits was administered orally the test compound at an appropriate dose and then, one hour after the oral administration, each was given 1.3 mg/kg or arachidonic acid by intravenous injection. The test animals were observed and sudden deaths during the test period were recorded. The ED50 was determined by Probit's method.
Unmedicated rabbits were employed as a control, without administering any test compound, but these were all dead within several minutes after the injection of arachidonic acid, as a result of pulmonary thromboembolisms.

[4] = system: synthesis of TXA2; conditions: in words; Prostaglandins, 13, 611 (1977); cited from earlier work

Row | SMILES | IC50 [1] [nM] | further results
1 | O=C(O)c1ccc(SC(Cn2ccnc2)c2ccccc2Cl)cc1 (stereo not drawn) [Compound 49, 4-[1-(2-Chlorophenyl)-2-(imidazol-1-yl)ethylthio]benzoic acid hydrochloride] | 81 | –
2 | COc1ccccc1C(Cn1ccnc1)Sc1ccc(C(=O)O)cc1.Cl (stereo not drawn) [Compound 70, 4-[1-(2-Methoxyphenyl)-2-(imidazol-1-yl)ethylthio]benzoic acid hydrochloride] | 59 | IC50 [2]: 73 nM; ED50 [3]: 0.13 mg/kg
3 | O=C(O)c1ccc(SC(Cn2ccnc2)c2ccc(Cl)cc2Cl)cc1 (stereo not drawn) [Compound 44, 4-[1-(2,4-Dichlorophenyl)-2-(imidazol-1-yl)ethylthio]-benzoic acid hydrochloride] | 47 | –
4 | O=C(O)c1ccc(SC(Cn2ccnc2)c2ccccc2)cc1 (stereo not drawn) [Compound 40, 4-[1-Phenyl-2-(imidazol-1-yl)ethylthio]benzoic acid] | 71 | –
5 | Cn1ccnc1 [1-methylimidazole] | – | inhibitory effect on the synthesis of TXA2 [4]: some inhibitory effect
6 | COc1ccc(C(Cn2ccnc2)Sc2ccc(C(=O)O)cc2)c(OC)c1 (stereo not drawn) [Compound 74, 4-[1-(2,4-Dimethoxyphenyl)-2-(imidazol-1-yl)ethylthio]benzoic acid hydrochloride] | 40 | –
7 | c1c[nH]cn1 [imidazole] | – | inhibitory effect on the synthesis of TXA2 [4]: some inhibitory effect
8 | Cl.O=C(O)c1ccc(OCCn2ccnc2)cc1 [Dazoxiben, 4-[2-(1-imidazolyl)ethoxy]benzoic acid hydrochloride, reference compound] | – | ED50 [3]: 1.1 mg/kg
9 | Cc1cc(C)c(C(Cn2ccnc2)Sc2ccc(C(=O)O)cc2)c(C)c1 (stereo not drawn) [Compound 62, 4-[1-(2,4,6-Trimethylphenyl)-2-(imidazol-1-yl)ethylthio]benzoic acid hydrochloride] | 69 | –
10 | Cc1ccccc1C(Cn1ccnc1)Sc1ccc(C(=O)O)cc1 (stereo not drawn) [Compound 58, 4-[1-(2-Methylphenyl)-2-(imidazol-1-yl)ethylthio]benzoic acid hydrochloride] | 67 | IC50 [2]: 52 nM
11 | COc1cc(OC)c(C(Cn2ccnc2)Sc2ccc(C(=O)O)cc2)c(OC)c1 (stereo not drawn) [Compound 84, 4-[1-(2,4,6-Trimethoxyphenyl)-2-(imidazol-1-yl)ethylthio]benzoic acid hydrochloride] | 33 | –
12 | COc1cccc(OC)c1C(Cn1ccnc1)Sc1ccc(C(=O)O)cc1 (stereo not drawn) [Compound 79, 4-[1-(2,6-Dimethoxyphenyl)-2-imidazol-1-yl)ethylthio]benzoic acid hydrochloride] | 57 | –
